IC50 data for one compound are collected here from US20120122840A1, “COMPOUNDS AND THERAPEUTIC USES THEREOF” (Myrexis, Inc., priority 2009, published 2012).

Structures are written as SMILES.

In one experiment the target is T1, TTK (Homo sapiens, UniProt P33981).
T1 sequence (P33981 1-857): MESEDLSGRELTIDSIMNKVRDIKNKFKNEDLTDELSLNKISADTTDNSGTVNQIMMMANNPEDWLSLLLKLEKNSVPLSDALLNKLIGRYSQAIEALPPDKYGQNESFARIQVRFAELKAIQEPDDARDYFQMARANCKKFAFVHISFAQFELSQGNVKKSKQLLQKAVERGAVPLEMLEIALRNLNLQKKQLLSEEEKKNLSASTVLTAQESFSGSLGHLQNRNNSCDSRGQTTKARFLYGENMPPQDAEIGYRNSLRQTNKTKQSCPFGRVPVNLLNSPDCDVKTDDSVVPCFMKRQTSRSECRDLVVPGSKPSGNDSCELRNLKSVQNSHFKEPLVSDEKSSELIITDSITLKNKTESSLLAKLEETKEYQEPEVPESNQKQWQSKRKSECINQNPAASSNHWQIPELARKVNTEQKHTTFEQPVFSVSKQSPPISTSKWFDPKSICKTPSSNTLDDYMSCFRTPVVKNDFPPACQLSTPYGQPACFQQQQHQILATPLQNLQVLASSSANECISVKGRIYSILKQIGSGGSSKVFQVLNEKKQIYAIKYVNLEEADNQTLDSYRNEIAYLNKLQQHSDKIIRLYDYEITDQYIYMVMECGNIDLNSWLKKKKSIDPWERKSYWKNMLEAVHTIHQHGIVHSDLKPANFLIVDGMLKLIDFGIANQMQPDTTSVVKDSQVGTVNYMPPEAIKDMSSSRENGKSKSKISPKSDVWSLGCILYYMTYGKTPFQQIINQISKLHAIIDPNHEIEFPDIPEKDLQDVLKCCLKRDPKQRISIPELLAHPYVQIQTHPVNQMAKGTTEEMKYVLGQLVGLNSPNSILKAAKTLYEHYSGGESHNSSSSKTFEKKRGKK
Nature of the experiment: TTK inhibition assay ([γ-33P]ATP transfer to phosphorylated MBP). To be noted: read-out: inhibition of the protein kinase activity of TTK, IC50. Also noted: A. Recombinant TTK enzyme. The format is biochemical. Here is the method:
The compounds of the invention were also tested in the following assay to determine TTK-inhibitory activity. This assay measures transfer of radioactive phosphate from ATP to a protein substrate in the presence or absence of a test compound.
MATERIALS: • A. Recombinant TTK enzyme; • B. Phosphorylated myelin basic protein (MBP); • C. [γ-^33P]ATP: 1 mCi/100 μL; • D. Positive Control: a proprietary compound known to have […] in this assay.
Final concentrations of reaction mixture components (50 μl total volume): 50 mM Tris-HCl, pH 7.5; 0.01% Triton X-100; 10 mM MgCl2; 25 ng TTK (˜4 nM); 5 μM Phosphorylated MBP; 40 μM ATP (1 μCi/well, adjusted ATP specific activity according to strength of radiolabeled ATP).
Mixes were assembled in the wells of a 96-well polypropylene plate as follows: 1 μL 50× compound to be tested; 39 μL 1.282× Reaction Mix; 10 μL 5×ATP Mix.
The following reaction/assay steps were then performed: • 1. Mix thoroughly and incubate at room temperature for 45 minutes; • 2. Add 70 μL/well, except in background wells, of 3% phosphoric acid to terminate reaction, and transfer 100 μL to P81 filter plate; • 3. Wash with 1% phosphoric acid, then dry the P81 filter plate completely; • 4. Add 100 μL/well MicroSint-20 (PerkinElmer #6013621) and seal; • 5.

Another experiment has as its target T2, Aurora A (Homo sapiens, UniProt O14965).
T2 sequence (O14965 1-403): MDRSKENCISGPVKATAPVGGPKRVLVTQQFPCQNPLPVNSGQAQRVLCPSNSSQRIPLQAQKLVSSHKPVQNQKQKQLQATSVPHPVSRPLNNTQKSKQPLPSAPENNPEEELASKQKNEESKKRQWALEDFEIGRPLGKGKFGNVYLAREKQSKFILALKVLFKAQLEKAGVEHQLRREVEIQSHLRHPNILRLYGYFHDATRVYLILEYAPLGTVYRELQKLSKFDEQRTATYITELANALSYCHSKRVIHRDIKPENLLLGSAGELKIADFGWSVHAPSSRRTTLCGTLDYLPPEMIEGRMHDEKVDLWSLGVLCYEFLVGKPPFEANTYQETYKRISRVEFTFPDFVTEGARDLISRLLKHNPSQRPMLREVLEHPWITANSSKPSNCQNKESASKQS
Nature of the experiment: In vitro binding assays.

As to `NCCCOc1ccc(Nc2nc(NC3CCCCC3)c3nc[nH]c3n2)cc1` [N2-[4-(3-aminopropoxy)phenyl]-N-6-cyclohexyl-9H-purine-2,6-diamine], the IC50 on TTK came to 8 nM; at Aurora A, 420 nM.
